According to article PMC6690934, “High-density immobilization of a ginsenoside-transforming β-glucosidase for enhanced food-grade production of minor ginsenosides” (Applied Microbiology and Biotechnology, 2019):

Target: T1, MT619 (Microbacterium testaceum, UniProt E8N6P7)
T1 construct: gene MTES_2447; codon-optimized synthetic gene (MK575514); E. coli BL21; purified by Ni and DEAE columns
T1 sequence (E8N6P7 1-619): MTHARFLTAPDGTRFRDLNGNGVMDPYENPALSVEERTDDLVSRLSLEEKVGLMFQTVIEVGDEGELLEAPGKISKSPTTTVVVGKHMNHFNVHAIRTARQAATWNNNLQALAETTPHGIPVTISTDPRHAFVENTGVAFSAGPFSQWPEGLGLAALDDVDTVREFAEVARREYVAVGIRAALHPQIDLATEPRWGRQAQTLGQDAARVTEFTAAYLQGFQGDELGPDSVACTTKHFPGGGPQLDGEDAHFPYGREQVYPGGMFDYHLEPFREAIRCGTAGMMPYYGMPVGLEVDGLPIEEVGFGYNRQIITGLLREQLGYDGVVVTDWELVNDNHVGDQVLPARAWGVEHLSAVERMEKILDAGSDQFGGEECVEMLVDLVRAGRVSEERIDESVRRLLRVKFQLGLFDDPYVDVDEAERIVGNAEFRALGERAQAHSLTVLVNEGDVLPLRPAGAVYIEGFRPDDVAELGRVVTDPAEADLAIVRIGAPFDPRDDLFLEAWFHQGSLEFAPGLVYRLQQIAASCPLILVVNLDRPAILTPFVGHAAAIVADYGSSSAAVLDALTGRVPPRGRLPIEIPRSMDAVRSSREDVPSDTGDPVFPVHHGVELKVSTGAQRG
Assay: TLC of hydrolysis products
Assay type: biochemical
Settings: pH 7.0, 37 °C, 2.0 mg/mL substrate, 0.1 mg/mL enzyme

CC(C)=CCC[C@](C)(O[C@@H]1O[C@H](CO[C@@H]2O[C@H](CO)[C@@H](O)[C@H](O)[C@H]2O)[C@@H](O)[C@H](O)[C@H]1O)[C@H]1CC[C@]2(C)[C@@H]1[C@H](O)C[C@@H]1[C@@]3(C)CC[C@H](O[C@@H]4O[C@H](CO)[C@@H](O)[C@H](O)[C@H]4O[C@@H]4O[C@H](CO)[C@@H](O)[C@H](O)[C@H]4O)C(C)(C)[C@@H]3CC[C@]12C [Rb1]
TLC of hydrolysis products: MT619 could clearly transform four major ginsenosides (Re, Rg1, Rb1, and Rd)
